Source: US9403804B2, “Inhibitors of c-fms kinase” (Janssen Pharmaceutica NV, priority 2006, dated 2016)

Legend:
[1] = tested on: mouse bone-marrow derived macrophages (BMDM); assay: CSF-1-driven mouse bone-marrow derived macrophages proliferation assay (BrDU incorporation); type: cell-based; conditions: 30 hrs culture, read-out: mCSF driven proliferation BMDM (Mouse) IC-50
Experimental: CSF-1-Driven Mouse Bone-Marrow Derived Macrophages Assay
Macrophages are derived by culturing mouse bone marrow in alpha-MEM supplemented with 10% FCS and 50 ng/ml recombinant mouse CSF-1 in bacteriologic dishes. On the sixth day, macrophages are detached from dishes, washed, and resuspended to 0.05 million cells/ml in alpha-MEM containing 10% FCS. One hundred ul of cell suspension are distributed per well into 96 well culture plates. Wells are further supplemented with the addition of 50 ul media containing 15 ng/ml CSF-1, 3 uM Indomethacin, and 3× of a dilution series of test compounds. The cells are cultured for 30 hrs at 37 degrees and 5% CO2. During the final six hours, cultures are supplemented with an additional 30 ul of media containing a 1:500 dilution of bromodeoxyuridine (BrDU). At the end of the culture period, the plates are spun at 1000 RPM for 1 minute and 130 ul of media is removed with a pipet and replaced with 150 ul of fixative solution for 1 hour @ room temperature. The fixative is then dispelled from the plates and the plates allowed to air dry. Incorporation of BrDU into the fixed, dried cells is quantified using a specific ELISA.

c-fms = c-fms (Homo sapiens (Human), UniProt P07333); assay: Autophosphorylation, fluorescence polarization competition immunoassay for c-fms inhibition; type: biochemical; conditions: averages of three independent measurements; read-out: 1 nM c-fms; peptide Pi assay IC-50
c-fms, sequence (P07333 20-972): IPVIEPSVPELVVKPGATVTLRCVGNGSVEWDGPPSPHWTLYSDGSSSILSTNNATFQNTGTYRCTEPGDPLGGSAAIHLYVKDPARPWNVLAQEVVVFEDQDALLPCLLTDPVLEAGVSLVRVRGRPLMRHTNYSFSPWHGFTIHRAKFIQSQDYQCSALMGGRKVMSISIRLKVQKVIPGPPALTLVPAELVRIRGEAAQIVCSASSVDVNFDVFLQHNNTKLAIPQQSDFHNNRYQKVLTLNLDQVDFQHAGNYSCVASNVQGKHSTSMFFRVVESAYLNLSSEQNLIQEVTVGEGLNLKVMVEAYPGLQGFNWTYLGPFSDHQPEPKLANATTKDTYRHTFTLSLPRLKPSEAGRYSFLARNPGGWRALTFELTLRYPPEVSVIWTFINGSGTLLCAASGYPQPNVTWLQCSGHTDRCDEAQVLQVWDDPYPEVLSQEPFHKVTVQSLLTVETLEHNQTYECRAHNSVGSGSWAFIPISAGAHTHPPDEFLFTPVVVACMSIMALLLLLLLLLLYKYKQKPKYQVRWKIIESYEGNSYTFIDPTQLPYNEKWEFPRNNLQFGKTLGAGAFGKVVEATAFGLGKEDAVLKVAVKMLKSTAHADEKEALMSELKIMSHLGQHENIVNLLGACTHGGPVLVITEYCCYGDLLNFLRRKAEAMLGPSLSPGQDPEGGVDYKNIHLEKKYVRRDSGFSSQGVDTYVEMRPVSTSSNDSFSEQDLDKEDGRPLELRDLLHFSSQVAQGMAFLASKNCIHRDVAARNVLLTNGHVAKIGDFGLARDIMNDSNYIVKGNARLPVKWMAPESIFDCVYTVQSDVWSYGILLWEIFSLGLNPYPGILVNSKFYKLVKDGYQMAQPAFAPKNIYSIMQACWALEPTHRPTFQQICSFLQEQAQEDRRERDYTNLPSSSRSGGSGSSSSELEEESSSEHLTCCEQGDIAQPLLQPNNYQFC
Experimental: Fluorescence Polarization Competition Immunoassay
The assay buffer used was 100 mM 4-(2-hydroxyethyl)piperazine 1-ethanesulfonic acid (HEPES), pH 7.5, 1 mM 1,4-dithio-DL-threitol (DTT), 0.01% (v/v) Tween-20. Compounds were diluted in assay buffer containing 4% dimethylsulfoxide (DMSO) just prior to the assay. […] The kinase reaction was initiated by adding 2 μL of 5 mM ATP (Sigma) in assay buffer. […] Control reactions were ran in each plate: in positive and negative control wells, assay buffer (made 4% in DMSO) was substituted for the compound; in addition, positive control wells received 1.2 μL of 50 mM ethylenediaminetetraaceticacid (EDTA).
The plates were incubated at room temperature for 45 min. At the end of the incubation, the reaction was quenched with 1.2 μL of 50 mM EDTA (EDTA was not added to the positive control wells at this point; see above). Following a 5-min incubation, each well received 10 μL of a 1:1:3 mixture of anti-phosphotyrosine antibody, 10×, PTK green tracer, 10× (vortexed), FP dilution buffer, respectively (all from PanVera, cat. # P2837). The plate was covered, incubated for 30 min at room temperature and the fluorescence polarization was read on the Analyst. The instrument settings were: 485 nm excitation filter; 530 nm emission filter; Z height: middle of well; G factor: 0.93. […] The reported IC50 values are averages of three independent measurements.

## CC1(C)CC=C(c2cc(C3(O)CCCCC3)ccc2NC(=O)c2nc(C#N)c[nH]2)CC1 [Example 1, 4-Cyano-1H-imidazole-2-carboxylic acid [2-(4,4-dimethyl-cyclohex-1-enyl)-4-(1-hydroxy-cyclohexyl)-phenyl]-amide]
[1]
  IC50: 72 nM
c-fms
  IC50: 5.9 nM

## CC1(C)CC=C(c2cc([C@]3(O)CC[C@@H](C(=O)O)CC3)ccc2NC(=O)c2ncc(C#N)[nH]2)CC1 [Example 2, 4-[4-[(5-Cyano-1H-imidazole-2-carbonyl)-amino]-3-(4,4-dimethyl-cyclohex-1-enyl)-phenyl]-cis-4-hydroxy-cyclohexanecarboxylic acid]
[1]
  IC50: 87 nM
c-fms
  IC50: 0.65 nM

## CC1(C)CC=C(c2cc(C3(O)CCCC3)ccc2NC(=O)c2nc(C#N)c[nH]2)CC1 [Example 3, 4-Cyano-1H-imidazole-2-carboxylic acid [2-(4,4-dimethyl-cyclohex-1-enyl)-4-(1-hydroxy-cyclopentyl)-phenyl]-amide]
[1]
  IC50: 11.7 nM
c-fms
  IC50: 2.3 nM

## CC1(C)CC=C(c2cc(C3(C#N)CC3)ccc2NC(=O)c2nc(C#N)c[nH]2)CC1 [Example 4, 4-Cyano-1H-imidazole-2-carboxylic acid [4-(1-cyano-cyclopropyl)-2-(4,4-dimethyl-cyclohex-1-enyl)-phenyl]-amide]
[1]
  IC50: 99 nM
c-fms
  IC50: 9.5 nM

## CC1(C)CC=C(c2cc(C3(C#N)CCCCC3)ccc2NC(=O)c2nc(C#N)c[nH]2)CC1 [Example 14, 4-Cyano-1H-imidazole-2-carboxylic acid [4-(1-cyano-cyclohexyl)-2-(4,4-dimethyl-cyclohex-1-enyl)-phenyl}-amide]
[1]
  IC50: 150 nM
c-fms
  IC50: 20 nM

## CC1(C)CC=C(c2cc(C3CCC(N4CCOCC4)CC3)ccc2NC(=O)c2nc(C#N)c[nH]2)CC1 (stereo not drawn) [Example 27, 4-Cyano-1H-imidazole-2-carboxylic acid [2-(4,4-dimethyl-cyclohex-1-enyl)-4-(4-morpholin-4-yl-cyclohexyl)-phenyl]-amide]
[1]
  IC50: 16 nM
c-fms
  IC50: 1.9 nM

## CN1CCN(C2CCC(c3ccc(NC(=O)c4nc(C#N)c[nH]4)c(C4=CCC(C)(C)CC4)c3)CC2)CC1 (stereo not drawn) [Example 28, 4-Cyano-1H-imidazole-2-carboxylic acid {2-(4,4-dimethyl-cyclohex-1-enyl)-4-[4-(4-methyl-piperazin-1-yl)-cyclohexyl]-phenyl}-amide]
[1]
  IC50: 10.2 nM
c-fms
  IC50: 0.99 nM

## COCCNC1(c2ccc(NC(=O)c3nc(C#N)c[nH]3)c(C3=CCC(C)(C)CC3)c2)CCCCC1 [Example 43, 4-Cyano-1H-imidazole-2-carboxylic acid {2-(4,4-dimethyl-cyclohex-1-enyl)-4-[1-(2-methoxy-ethylamino)-cyclohexyl]-phenyl}-amide]
[1]
  IC50: 111 nM
c-fms
  IC50: 2.9 nM

## CC1(C)CC=C(c2cc([C@]3(O)CC[C@@H](N4CCOCC4)CC3)ccc2NC(=O)c2nc(C#N)c[nH]2)CC1 [Example 44, 4-Cyano-1H-imidazole-2-carboxylic acid [2-(4,4-dimethyl-cyclohex-1-enyl)-4-(cis-1-hydroxy-cis-4-morpholin-4-yl-cyclohexyl)-phenyl]-amide]
[1]
  IC50: 2.8 nM

## CC1(C)CC=C(c2cc([C@]3(O)CC[C@H](N4CCOCC4)CC3)ccc2NC(=O)c2nc(C#N)c[nH]2)CC1 [Example 45, 4-Cyano-1H-imidazole-2-carboxylic acid [2-(4,4-dimethyl-cyclohex-1-enyl)-4-(cis-1-hydroxy-trans-4-morpholin-4-yl-cyclohexyl)-phenyl]-amide]
[1]
  IC50: 8.5 nM
